pIC50: −log10 of the molar value.
Columns and labels:
JNK1 [1] = molecular target: T1, JNK1 (Homo sapiens, UniProt P45983); assay: KINOMEscan competition binding assay, JNK1; set-up: M1/Q384; host or cells: HEK-293; settings: ratio PoC (off-target)/PoC (MKK4)
How it was run: (§1)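 DNA-tagged kinases expressed in HEK-293 cells compete between immobilized ligand on blocked beads and test compound at 100 nM; kinase retained on beads quantified by qPCR of the tag.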
Target sequence in this assay (P45983 1-384 isoform P45983-2): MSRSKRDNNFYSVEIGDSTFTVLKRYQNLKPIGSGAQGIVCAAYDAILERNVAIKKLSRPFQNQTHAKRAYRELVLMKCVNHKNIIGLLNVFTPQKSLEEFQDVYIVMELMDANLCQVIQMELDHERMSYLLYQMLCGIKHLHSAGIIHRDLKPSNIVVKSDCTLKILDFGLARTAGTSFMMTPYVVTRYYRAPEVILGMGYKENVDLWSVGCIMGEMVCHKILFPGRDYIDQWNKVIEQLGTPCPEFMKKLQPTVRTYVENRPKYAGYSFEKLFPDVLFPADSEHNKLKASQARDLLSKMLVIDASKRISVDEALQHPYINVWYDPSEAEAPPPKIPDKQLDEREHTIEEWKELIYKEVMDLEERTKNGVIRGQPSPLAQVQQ

JNK1 [2] = molecular target: T1, JNK1; assay: 33PanQinase enzyme assay, JNK1; type: biochemical; set-up: purchased ProQinase GmbH, Freiburg, Germany (33PanQinase Assay Service); settings: ratio IC50(JNK1)/IC50(MKK4)
How it was run: (§2)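 33Pi incorporation, read by microplate scintillation counting, measured kinase activity after 60 min at 30 °C. Reactions were quenched with 2% (v/v) H3PO4 and washed with 0.9% NaCl. IC50 derived by least-squares fitting; single doses reported as % residual activity.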
Target sequence in this assay (P45983 whole entry): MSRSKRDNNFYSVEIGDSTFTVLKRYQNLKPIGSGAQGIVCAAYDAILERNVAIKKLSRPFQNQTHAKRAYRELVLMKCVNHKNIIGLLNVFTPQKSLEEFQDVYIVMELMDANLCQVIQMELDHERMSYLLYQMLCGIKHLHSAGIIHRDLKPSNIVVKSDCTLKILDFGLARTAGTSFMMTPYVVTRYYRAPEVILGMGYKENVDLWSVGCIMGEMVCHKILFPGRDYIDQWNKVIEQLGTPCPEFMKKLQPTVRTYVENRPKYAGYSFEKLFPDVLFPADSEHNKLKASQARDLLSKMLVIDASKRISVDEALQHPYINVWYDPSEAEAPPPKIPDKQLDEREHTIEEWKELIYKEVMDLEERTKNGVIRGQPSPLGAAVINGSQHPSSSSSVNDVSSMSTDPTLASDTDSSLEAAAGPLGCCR

MKK4 [3] = molecular target: T2, MKK4 (Homo sapiens, UniProt P45985); assay: 33PanQinase enzyme assay, MKK4; type: biochemical; settings: assay 'IC50'; read-out: Potency MKK4 (IC50)
T2 construct: purchased ProQinase GmbH, Freiburg, Germany (33PanQinase Assay Service)
T2 sequence (P45985 1-399): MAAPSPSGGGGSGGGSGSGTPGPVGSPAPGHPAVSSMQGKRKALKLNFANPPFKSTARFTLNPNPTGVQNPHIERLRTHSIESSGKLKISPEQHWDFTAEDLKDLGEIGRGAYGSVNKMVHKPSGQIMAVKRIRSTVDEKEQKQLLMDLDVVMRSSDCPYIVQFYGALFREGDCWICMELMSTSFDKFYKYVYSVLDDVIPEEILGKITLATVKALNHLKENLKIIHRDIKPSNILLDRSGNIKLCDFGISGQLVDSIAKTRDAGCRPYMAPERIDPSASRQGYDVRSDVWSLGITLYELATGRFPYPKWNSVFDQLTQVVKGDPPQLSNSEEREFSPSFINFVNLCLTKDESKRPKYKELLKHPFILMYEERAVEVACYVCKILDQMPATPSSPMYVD
How it was run: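 Inhibition measured as 33Pi transfer to substrate after a 60-min, 30 °C reaction, acid-stopped and scintillation-counted.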

BRaf = molecular target: T3, BRaf (Homo sapiens, UniProt P15056); assay: KINOMEscan competition binding assay, BRaf; settings: ratio PoC (off-target)/PoC (MKK4)
T3 construct: purchased ProQinase GmbH, Freiburg, Germany (33PanQinase Assay Service)
How it was run: as §1

MKK7 [4] = molecular target: T4, MKK7 (Homo sapiens, UniProt O14733); assay: 33PanQinase enzyme assay, MKK7; type: biochemical; set-up: purchased ProQinase GmbH, Freiburg, Germany (33PanQinase Assay Service); settings: ratio IC50(MKK7)/IC50(MKK4)
T4 sequence (O14733 1-419): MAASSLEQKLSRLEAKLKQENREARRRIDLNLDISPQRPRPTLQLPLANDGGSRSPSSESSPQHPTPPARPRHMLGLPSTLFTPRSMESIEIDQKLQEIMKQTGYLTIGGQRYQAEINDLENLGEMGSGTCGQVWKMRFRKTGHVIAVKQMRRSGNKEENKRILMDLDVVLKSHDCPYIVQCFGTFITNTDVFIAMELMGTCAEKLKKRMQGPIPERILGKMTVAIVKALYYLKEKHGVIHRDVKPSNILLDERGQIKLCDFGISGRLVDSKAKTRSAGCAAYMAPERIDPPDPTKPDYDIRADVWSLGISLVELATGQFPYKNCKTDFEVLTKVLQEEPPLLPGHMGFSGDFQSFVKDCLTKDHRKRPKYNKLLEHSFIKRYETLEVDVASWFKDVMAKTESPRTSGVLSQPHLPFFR
How it was run: as §2

MKK4 [5] = molecular target: T5, MKK4 (Homo sapiens, UniProt P45985); assay: KINOMEscan competition binding assay, MKK4; settings: residual percent of control binding (PoC) at 100 nM
T5 construct: S84/D399; host or cells: HEK-293
T5 sequence (P45985 84-399): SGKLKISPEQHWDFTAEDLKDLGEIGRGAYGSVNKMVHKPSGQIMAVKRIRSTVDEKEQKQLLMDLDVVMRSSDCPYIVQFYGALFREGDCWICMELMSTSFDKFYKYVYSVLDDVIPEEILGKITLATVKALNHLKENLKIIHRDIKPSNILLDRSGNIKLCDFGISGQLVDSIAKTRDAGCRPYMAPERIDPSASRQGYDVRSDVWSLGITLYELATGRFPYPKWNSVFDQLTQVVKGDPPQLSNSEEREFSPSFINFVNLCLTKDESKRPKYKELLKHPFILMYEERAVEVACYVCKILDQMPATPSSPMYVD
How it was run: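 Tested at 100 nM and reported as percent of control binding (PoC). MKK4 was produced in HEK-293 cells and DNA-tagged. Displacement from ligand-coated, blocked beads was read by qPCR of eluted kinase.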

MKK7 [6] = molecular target: T4, MKK7; assay: KINOMEscan competition binding assay, MKK7; set-up: M1/R419; host or cells: HEK-293; settings: ratio PoC (off-target)/PoC (MKK4)
How it was run: as §1

T3 sequence (P15056 whole entry, species assumed): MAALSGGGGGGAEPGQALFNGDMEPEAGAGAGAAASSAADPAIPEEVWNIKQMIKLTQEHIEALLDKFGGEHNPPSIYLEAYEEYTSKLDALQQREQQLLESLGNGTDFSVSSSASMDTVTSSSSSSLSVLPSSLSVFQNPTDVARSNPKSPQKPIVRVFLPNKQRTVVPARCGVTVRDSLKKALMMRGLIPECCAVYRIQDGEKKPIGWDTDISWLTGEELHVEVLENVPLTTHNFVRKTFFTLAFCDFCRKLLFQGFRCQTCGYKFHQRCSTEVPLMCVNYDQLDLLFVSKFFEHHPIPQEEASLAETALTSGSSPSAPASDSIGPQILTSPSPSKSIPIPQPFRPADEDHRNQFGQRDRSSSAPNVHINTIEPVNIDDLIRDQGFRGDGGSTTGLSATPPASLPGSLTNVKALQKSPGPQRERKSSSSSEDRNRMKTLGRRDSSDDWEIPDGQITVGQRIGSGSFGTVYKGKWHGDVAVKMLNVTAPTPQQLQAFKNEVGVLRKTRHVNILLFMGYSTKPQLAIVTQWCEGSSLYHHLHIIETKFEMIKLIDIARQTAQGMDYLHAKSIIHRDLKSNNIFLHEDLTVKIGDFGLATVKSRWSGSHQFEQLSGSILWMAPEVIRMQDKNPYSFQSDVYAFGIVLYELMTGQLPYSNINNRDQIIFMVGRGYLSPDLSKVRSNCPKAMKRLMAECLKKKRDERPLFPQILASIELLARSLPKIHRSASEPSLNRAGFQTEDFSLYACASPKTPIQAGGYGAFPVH

Row | Structure (SMILES) | selectivity based on % Ctrl @100 nM vs. JNK1 (JNK1 [1]) | Selectivity JNK1, IC50(off-target)/IC50(MKK4) (JNK1 [2]) | pIC50 (MKK4 [3]) | selectivity based on % Ctrl @100 nM vs. Braf (BRaf) | Selectivity IVIKK7, IC50(off-target)/IC50(MKK4) (MKK7 [4]) | MKK4 [% Ctrl @ 100 nM (MKK4 [5]) | selectivity based on % Ctrl @100 nM vs. MKK7 (MKK7 [6])
1 | CCCS(=O)(=O)Nc1ccc(F)c(C(=O)c2c[nH]c3ncc(C4CCNCC4)cc23)c1F [Example 241, N-(2,4-difluoro-3-(5-(piperidin-4-yl)-1-pyrrolo[2,3-b]pyridine-3-carbonyl)phenyl)propane-1-sulfonamide] | + (10 ≥ ratio > 3) | ◯ (3 ≥ IC50(off-target)/IC50(MKK4)) | 5.00 to 6.00 | ◯ (3 ≥ Ratio) | + (10 ≥ IC50(off-target)/IC50(MKK4) > 3) | + (3 ≤ PoC < 30) | + (10 ≥ ratio > 3)
2 | CS(=O)(=O)Nc1c(F)ccc(C(=O)c2c[nH]c3ncc(-c4cccnc4)cc23)c1F [Example 228, N-(2,6-difluoro-3-(5-(pyridin-3-yl)-1H-pyrrolo[2,3-b]pyridine-3-carbonyl)phenyl)methanesulfonamide] | +++ (Ratio > 100) | ++ (100 ≥ IC50(off-target)/IC50(MKK4) > 10) | 6.00 to 7.00 | +++ (Ratio > 100) | ++ (100 ≥ IC50(off-target)/IC50(MKK4) > 10) | +++ (PoC < 1) | +++ (Ratio > 100)
3 | CCCS(=O)(=O)Nc1ccc(F)c(C(=O)c2c[nH]c3ncc(-c4ccnnc4)cc23)c1F [Example 49] | +++ (Ratio > 100) | ++ (100 ≥ IC50(off-target)/IC50(MKK4) > 10) | 5.00 to 6.00 | ◯ (3 ≥ Ratio) | ++ (100 ≥ IC50(off-target)/IC50(MKK4) > 10) | +++ (PoC < 1) | +++ (Ratio > 100)
4 | CNc1ncc(-c2cnc3[nH]cc(C(=O)c4ccc(F)c(NS(=O)(=O)CCC(F)(F)F)c4F)c3c2)cn1 [Example 177, N-(2,6-difluoro-3-(5-(2-(methylamino)pyrimidin-5-yl)-1H-pyrrolo[2,3-b]pyridine-3-carbonyl)phenyl)-3,3,3-trifluoropropane-1-sulfonamide] | +++ (Ratio > 100) | +++ (IC50(off-target)/IC50(MKK4) > 100) | > 7.00 | +++ (Ratio > 100) | +++ (IC50(off-target)/IC50(MKK4) > 100) | +++ (PoC < 1) | +++ (Ratio > 100)
5 | CCCS(=O)(=O)Nc1ccc(F)c(C(=O)c2c[nH]c3ncc(-c4cnc[nH]4)cc23)c1F [Example 83, N-(3-(5-(1H-imidazol-5-yl)-1H-pyrrolo[2,3-b]pyridine-3-carbonyl)-2,4-difluorophenyl)propane-1-sulfonamide] | +++ (Ratio > 100) | ◯ (3 ≥ IC50(off-target)/IC50(MKK4)) | 6.00 to 7.00 | ◯ (3 ≥ Ratio) | ++· | +++ (PoC < 1) | +++ (Ratio > 100)
6 | CCCS(=O)(=O)Nc1ccc(F)c(C(=O)c2c[nH]c3ncc(C4=CCNCC4)cc23)c1F [Example 242] | + (10 ≥ ratio > 3) | ◯ (3 ≥ IC50(off-target)/IC50(MKK4)) | < 5.00 | ◯ (3 ≥ Ratio) | ++ (100 ≥ IC50(off-target)/IC50(MKK4) > 10) | + (3 ≤ PoC < 30) | + (10 ≥ ratio > 3)
7 | CS(=O)(=O)Nc1c(F)ccc(C(=O)c2c[nH]c3ncc(-c4ccncc4)cc23)c1F [Example 234, N-(2,6-difluoro-3-(5-(pyridin-4-yl)-1H-pyrrolo[2,3-b]pyridine-3-carbonyl)phenyl)methanesulfonamide] | +++ (Ratio > 100) | +++ (IC50(off-target)/IC50(MKK4) > 100) | > 7.00 | +++ (Ratio > 100) | +++ (IC50(off-target)/IC50(MKK4) > 100) | +++ (PoC < 1) | +++ (Ratio > 100)
8 | CCCS(=O)(=O)Nc1ccc(F)c(C(=O)c2c[nH]c3ncc(-c4cc[nH]c4)cc23)c1F [Example 100, N-(3-(5-(1H-pyrrol-3-yl)-1H-pyrrolo[2,3-b]pyridine-3-carbonyl)-2,4-difluorophenyl)propane-1-sulfonamide] | ++ (100 ≥ ratio > 10) | ◯ (3 ≥ IC50(off-target)/IC50(MKK4)) | < 5.00 | ◯ (3 ≥ Ratio) | ◯ (3 ≥ IC50(off-target)/IC50(MKK4)) | + (3 ≤ PoC < 30) | ++ (100 ≥ ratio > 10)
9 | CCCS(=O)(=O)Nc1ccc(F)c(C(=O)c2c[nH]c3ncc(-c4cccnc4)cc23)c1F [Example 58] | +++ (Ratio > 100) | ◯ (3 ≥ IC50(off-target)/IC50(MKK4)) | 6.00 to 7.00 | ++ (100 ≥ ratio > 10) | ++ (100 ≥ IC50(off-target)/IC50(MKK4) > 10) | +++ (PoC < 1) | +++ (Ratio > 100)
